Results published in patent US20050060764A1, “Mouse model for bone metabolism” (priority 2003, published 2005).
Strand notation (5' to 3'): a small letter for the sugar, then the base; units joined by * are phosphorothioate-linked, units joined directly phosphodiester-linked; [ ] holds rarer units or linkages, { } end groups; capitals alone tell only the bases. e = 2'-O-(2-methoxyethyl) (MOE); [5mC] = 5-methylcytosine; d = 2'-deoxy (DNA)

Key:
[1] = test system: RANK mRNA; assay: RANK mRNA expression in mouse proximal tibia after antisense oligonucleotide treatment and PTH infusion: dose response and delivery method (Table 12); format: in vivo; conditions: then 24 h PTH
Protocol: In accordance with the present invention, ISIS 181071 was evaluated for its ability to inhibit RANK expression and PTH-induced serum calcium concentration increase following 18 days of oligonucleotide treatment.
Female Swiss-Webster mice (5-8 wks old), fed a low-calcium diet, were treated for 18 days with ISIS 181071 (SEQ ID NO: 356) at different doses and through different delivery methods. The dose of oligonucleotide was either 30 mg/kg, 20 mg/kg, 10 mg/kg, 3 mg/kg, or 0.1 mg/kg administered by daily subcutaneous injections for the first five days, followed by mini-pump infusion for the remaining 13 days, or the dose was 10 mg/kg or 30 mg/kg administered daily by subcutaneous injection for the entire 18 day period. After 18 days of treatment with oligonucleotides, the mice were infused with PTH by subcutaneously implanted mini-pumps at a dose of 1 ug/100 g/6 hr. A group of control mice received saline, calcitonin (400 ng) plus PTH (1 ug/100 g/6 hr) or PTH alone (1 ug/100 g/6 hr). After 24 hours of PTH infusion (total PTH delivery of 4ug/100 g), the mice were sacrificed and measurements were made of serum calcium with the Sigma Diagnostics Calcium Kit (Sigma-Aldrich) and RANK mRNA expression in proximal tibia (as described in other examples herein). The results are shown in Table 12 are normalized to PTH treatment alone and are the average of four mice per group.

[2] = Serum calcium concentration after PTH infusion in mice: specificity and dose response of RANK antisense oligonucleotide (Table 15); format: in vivo, mouse; conditions: control mice, no oligonucleotide; PTH 1 ug/100 g/6 hr 24 h, calcitonin 400 ng
Protocol: In accordance with the present invention, the specificity of RANK inhibition by a RANK antisense oligonucleotide was compared to that of an 8-base pair mismatch oligonucleotide.
ISIS 181080 ([…], SEQ ID NO: 357) is an antisense oligonucleotide targeted to mouse RANK. ISIS 208565 ([…], SEQ ID NO: 358) is an 8-base pair mismatch oligonucleotide. […] All cytidine residues are 5-methylcytidines.
Female Swiss-Webster mice (5-8 wks old) fed a low-calcium diet were treated for two weeks with either ISIS 181080 or ISIS 208565. The dose of oligonucleotide was either 40 mg/kg, 30 mg/kg, 20 mg/kg, or 10 mg/kg. After the 2-week treatment with oligonucleotides, the mice were infused with PTH by subcutaneously implanted mini-pumps at a dose of 4 ug/100 g over 24 hours. A group of control mice were dosed with either saline, PTH alone (1 ug/100 g/6 hr) or calcitonin (400 ng) plus PTH (1 ug/100 g/6 hr). After 24 hours of PTH infusion (total PTH delivery of 4 ug/100 g), the mice were sacrificed and measurements were made of serum calcium with the Sigma Diagnostics Calcium Kit (Sigma-Aldrich) and RANK mRNA expression in proximal tibia (as described in other examples herein). The results shown in Table 15 are the average from four mice per group. Percent inhibition of RANK mRNA is normalized to PTH treatment alone. […] The data also illustrate that these effects are occurring due to an antisense mechanism.

## TCCTCGAGAGGTCTCCTTGC (antisense eT*e[5mC]*e[5mC]*eT*e[5mC]*dG*dA*dG*dA*dG*dG*dT*d[5mC]*dT*d[5mC]*e[5mC]*eT*eT*eG*e[5mC]) [ISIS 181071, 2′-MOE gapmer antisense oligonucleotide targeted to mouse RANK]
[1]; 0.1 mg/kg, injection 5 days then infusion 13 days
  RANK mRNA % inhibition (normalized to PTH): 19%
[1]; 3 mg/kg, injection 5 days then infusion 13 days
  RANK mRNA % inhibition (normalized to PTH): 5%
[1]; 10 mg/kg daily subcutaneous injection 18 days
  RANK mRNA % inhibition (normalized to PTH): 29%
[1]; 10 mg/kg, injection 5 days then infusion 13 days
  RANK mRNA % inhibition (normalized to PTH): 23%
[1]; 20 mg/kg, injection 5 days then infusion 13 days
  RANK mRNA % inhibition (normalized to PTH): 33%
[1]; 30 mg/kg daily subcutaneous injection 18 days
  RANK mRNA % inhibition (normalized to PTH): 30%
[1]; 30 mg/kg, injection 5 days then infusion 13 days
  RANK mRNA % inhibition (normalized to PTH): 32%

B1: parathyroid hormone (peptide, UniProt P01270 32-115, looked up)
Parathyroid hormone: SVSEIQLMHNLGKHLNSMERVEWLRKKLQDVHNFVALGAPLAPRDAGSQRPRKKEDNVLVESHEKSLGEADKADVNVLTKAKSQ
notes: parathyroid hormone infused to induce bone resorption in the mouse model
[2]
  serum calcium: 20 mg/dL
